US20170339949A1, “SUGAR SURFACTANTS AND USE THEREOF IN AGROCHEMICAL COMPOSITIONS” (Clariant International Ltd., priority 2014, published 2017)

Key:
apple leaf cuticles = assay: Membrane penetration test with apple leaf cuticles for mesotrione; type: in vitro ADME; conditions: summary in words of Table 1
From the text: Increasing the absorption of systemic active ingredients using the example of mesotrione and test system for measurement of the promotion of penetration of active ingredients
Surfactants can promote the absorption of (active) ingredients through membranes such as skin, films or the plant cuticle. As a “finite-dose” application, it is known for the single administration or application of a solution, cream, gel etc. to a membrane that the absorption of active ingredient can be influenced by some additives such as surfactants even after wetting. This effect is independent of the interfacial effect in water, is often highly concentration-dependent and takes place for the most part after evaporation of water and any solvents present rather than as a result of the interaction, for example, with active ingredient, membrane and environmental factors. […]
The potential of the test substances, which is independent of the surfactant action, to promote foliar absorption of active agrochemical ingredients was determined in membrane penetration tests with apple leaf cuticles for mesotrione. […] At regular intervals, aliquot samples were taken and the proportion of active ingredient penetrated was determined by HPLC. During the experiment, the temperature in the system (block, diffusion cells, liquids, etc.) and the air humidity above the spray coating on the cuticle were known exactly and were monitored. […]

[1] = Dynamic surface tension (Krüss PocketDyne BP2100); type: physicochemical; conditions: for Surface tension: 24.6° C.
From the text: In the case of plants that are difficult to wet, such as the cereal plants wheat, barley, triticale, rye and oats, in the case of further large-scale crops corn, rice, soya and oilseed rape, and also in the case of almost all weed grasses and numerous dicotyledonous weeds that are difficult to control, such as Chenopodium album or Euphorbium heterophyllum, the promotion of the adsorption of the spray liquid on the green parts of the plant is of crucial significance. This wetting agent effect was therefore also determined for the glucamides.
For a given application technique or parameters (nozzle, pressure, water application rate, distance from the plant surface), the value for the dynamic surface tension in [mN/m] correlates well with the adhesion on plants that are difficult to wet such as barley (or cereals in general) and weed grasses. A value of 50 mN/m (at 20-21° C.) with respect to water (72.8 mN/m) results in an improvement in the adhesion from “zero adhesion” to about 50% (Baur P, Pontzen R 2007. Basic features of plant surface wettability and deposit formation and the impact of adjuvants. In: R E Gaskin ed. Proceeding of the 8th International Symposium on Adjuvants for Agrochemicals. Publisher: International Society for Agrochemical Adjuvants (ISAA), Columbus, Ohio, USA). A value below 60 mN/m at 200 ms gives visibly better adsorption of aqueous spray liquids; in the case of standard flat jet nozzles, optimal wetting is achieved.
The values for dynamic surface tension (Krüss PocketDyne BP2100, T 24.6° C.) are shown below at for the linear C810 glucamide and the decene glucamide and a pelargonamide.

[2] = weak organic acid; cited from earlier work

SMILES | Promotion of penetration of mesotrione compared to the linear mixture of C8 and C10 glucamide (apple leaf cuticles) | Surface tension ([1]; conc. 0.6 g/L, 20 ms) | Surface tension ([1]; conc. 0.6 g/L, 50 ms) | Surface tension ([1]; conc. 0.6 g/L, 100 ms) | Surface tension ([1]; conc. 0.6 g/L, 200 ms) | Surface tension ([1]; conc. 1.25 g/L, 20 ms) | Surface tension ([1]; conc. 1.25 g/L, 50 ms) | Surface tension ([1]; conc. 1.25 g/L, 100 ms) | Surface tension ([1]; conc. 1.25 g/L, 200 ms) | Surface tension ([1]; conc. 2.5 g/L, 20 ms) | Surface tension ([1]; conc. 2.5 g/L, 50 ms) | Surface tension ([1]; conc. 2.5 g/L, 100 ms) | Surface tension ([1]; conc. 2.5 g/L, 200 ms) | Surface tension ([1]; conc. 5 g/L, 20 ms) | Surface tension ([1]; conc. 5 g/L, 50 ms) | Surface tension ([1]; conc. 5 g/L, 100 ms) | Surface tension ([1]; conc. 5 g/L, 200 ms) | pKa [2] | Suitability as wetting agent compared to Synergen GA (C810) ([1]; summary in words of dynamic surface tension results)
CCCCCCCCC(=O)N(C)C[C@H](O)[C@@H](O)[C@H](O)[C@H](O)CO [N-Methyl-N-nonanoylglucamine, N-methyl-N-nonanoylglucamine] | likewise falls short | 70.2 mN/m | 68.8 mN/m | 67.7 mN/m | 67.1 mN/m | 66.0 mN/m | 63.7 mN/m | 62.6 mN/m | 61.1 mN/m | 59.1 mN/m | 56.3 mN/m | 55.3 mN/m | 53.8 mN/m | 47.7 mN/m | 45.6 mN/m | 45.2 mN/m | 44.3 mN/m | – | –
CS(=O)(=O)c1ccc(C(=O)C2C(=O)CCCC2=O)c([N+](=O)[O-])c1 [Mesotrione, mesotrione] | – | – | – | – | – | – | – | – | – | – | – | – | – | – | – | – | – | 3.1 | –
C=CCCCCCCCC(=O)N(C)C[C@H](O)[C@@H](O)[C@H](O)[C@H](O)CO [N-Methyl-N-dec-9-enoylglucamine, N-methyl-N-dec-9-enoylglucamine] | higher promotion of penetration of mesotrione | 70.2 mN/m | 68.9 mN/m | 67.6 mN/m | 67.4 mN/m | 66.4 mN/m | 63.7 mN/m | 61.8 mN/m | 61.0 mN/m | 59.7 mN/m | 56.6 mN/m | 55.5 mN/m | 54.1 mN/m | 50.5 mN/m | 48.3 mN/m | 47.7 mN/m | 46.6 mN/m | – | wetting agent of comparable suitability
